Experimental data: US20240325544A1, “CATIONIC LIPID FOR COVALENT MODIFICATION OF PEPTIDES” (PharmalN Corporation, priority 2023, published 2024)
Bridge positions count the residues as written; N and C are the ends. Square brackets hold non-standard residues; d marks the D form. Ends that are not written are not given here. * marks the point of attachment. Palmitoyl = CCCCCCCCCCCCCCCC(=O)*; Dap = NC[C@H](N)C(=O)O; AEEA = NCCOCCOCC(=O)O

Assays:
[1] = Clinically observable adverse effects of cationic alkyl moieties after subcutaneous bolus in rats (Table 1); format: in vivo, rat; details: male, Sprague-Dawley, rat, in vivo, sc, tested at 3.0, 5.0 or 10 μmol/kg, lethargy is considered maximum tolerated bolus dose, read-out: Lethargy* in n = 3
Outline: (§1)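 Rats given subcutaneous bolus of cationic alkyl modifier in sterile water pH 4.5-5, starting 5.0 μmol/kg, raised to 10 μmol/kg if no swelling or lowered to 3.0 μmol/kg if swelling, 1-week wash-out. Monitored for lethargy, ataxia, swelling, discoloration closely for 4 h, then hourly.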

Sprague Dawley rats = test: as above; format: in vivo, rat; details: tested at 3.0, 5.0 or 10 μmol/kg
Outline: as §1

MC38 colon cancer cells = test: Subcutaneous mouse model of colon cancer using MC38 cells (FIG. 12); format: in vivo, mice; details: combination with anti-tigit Ab 5 mg/kg IP twice a week, 2 cycles
Protocol: FIGS. 12A-12B. […] Error bars represent standard error of the mean. FIG. 12A) A diagram of the dose schedule for administration of immune checkpoint inhibitor (anti-tigit Ab) and SEQ ID NO: 31. FIG. 12 B) Tumor growth kinetics of 6-week-old male C57BL/6J mice (n=8-9 per group) that were subcutaneously inoculated with MC38 colon cancer cells (1,000,000 cells/mouse) in right flank. Starting from Day 4 post-inoculation, anti-tigit Ab was administered intraperitoneally at 5 mg/kg twice a week for 2 cycles; SEQ ID NO: 31 was administered subcutaneously at a bolus dose of 0.3 mg/kg (0.1 μmol/kg) once daily for 5 days (5 days on, 2 days off) for 3 cycles; or a combination of anti-tigit Ab (5 mg/kg IP twice a week; 2 cycles) and SEQ ID NO: 31 (0.3 mg/kg SC once a day for 5 days on and 2 days off; 3 cycles). The control group, which received only buffer, was dosed in the same manner as SEQ ID NO: 31 to establish the baseline tumor growth kinetics. […]
Animal care and treatment: Male C57BL/6J mice (6 weeks-old) were purchased from Kyudo (Saga, Japan) and maintained under a 12-hour light/12-hour dark cycle with free access to water and standard mouse diet (MF diet; Oriental Yeast Co., Ltd, Tokyo Japan). […] Tumor sizes were measured using calipers on Days 4, 7, 14, and Day 22 post-inoculation. […]

[2] = target: T1, Recombinant human NPRB extracellular domain - human IgG1 Fc fusion (NPRB-Fc) (human, UniProt P20594 23-458); test: Fluorescence polarization, 5 nM CNP-F* with 50 nM human NPRB
T1 construct: extracellular domain; Used at 50 nM in the fluorescence polarization assay; R1-T433 counts on the mature protein; also called natriuretic peptide receptor B; not shown: Human IgG1 heavy chain, amino acids E216-G446 (IMGT.org, EU numbering), Accn; P01857.2
T1 sequence (looked up): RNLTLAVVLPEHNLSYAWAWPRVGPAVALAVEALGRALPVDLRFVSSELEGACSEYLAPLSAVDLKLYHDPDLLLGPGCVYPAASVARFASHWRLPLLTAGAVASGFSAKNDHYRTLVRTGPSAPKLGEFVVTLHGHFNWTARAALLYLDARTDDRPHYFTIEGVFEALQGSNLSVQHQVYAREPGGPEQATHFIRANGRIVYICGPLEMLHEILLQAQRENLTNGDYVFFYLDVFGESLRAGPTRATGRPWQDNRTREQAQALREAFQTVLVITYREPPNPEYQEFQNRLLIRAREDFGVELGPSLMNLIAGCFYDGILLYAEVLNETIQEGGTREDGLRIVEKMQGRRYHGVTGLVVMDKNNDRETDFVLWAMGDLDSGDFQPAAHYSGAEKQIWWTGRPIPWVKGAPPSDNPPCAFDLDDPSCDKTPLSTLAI
Protocol: (§2) In the presence of [SEQ ID.
(§3) Next, 1-L volume of SEQ ID. […] The plate was incubated at room temperature for 10 min. Fluorescence polarization was then measured on Flexstation 3 (excitation wavelength: 480 nm; emission wavelength: 525 nm and cutoff at 515 nm).

[3] = target: T2, Recombinant human NPRA extracellular domain - human IgG1 Fc fusion (NPRA-Fc) (human, UniProt P16066 33-473); test: Fluorescence polarization, 5 nM CNP-F* probe with recombinant human NPRA-Fc
T2 construct: extracellular domain; Expressed in Expi293 cells, Protein A purified; N1-L439 and C232 count on the mature NPRA, not on the precursor; also called Natriuretic Peptide Receptor A; not shown: Human IgG1 heavy chain, amino acids E216-G446 (IMGT.org, EU numbering), Accn; P01857.2
T2 sequence (looked up): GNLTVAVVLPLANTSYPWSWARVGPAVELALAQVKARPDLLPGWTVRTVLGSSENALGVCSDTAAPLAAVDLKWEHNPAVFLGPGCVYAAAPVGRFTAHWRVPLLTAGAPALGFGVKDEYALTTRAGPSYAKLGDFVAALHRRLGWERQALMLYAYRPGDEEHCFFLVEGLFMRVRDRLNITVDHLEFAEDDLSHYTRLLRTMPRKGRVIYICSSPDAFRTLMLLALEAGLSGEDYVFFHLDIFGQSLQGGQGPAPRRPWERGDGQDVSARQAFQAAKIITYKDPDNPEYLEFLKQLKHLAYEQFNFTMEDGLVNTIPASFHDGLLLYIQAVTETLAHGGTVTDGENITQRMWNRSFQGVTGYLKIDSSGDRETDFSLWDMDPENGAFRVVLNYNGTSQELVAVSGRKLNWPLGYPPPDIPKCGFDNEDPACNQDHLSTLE

[4] = target: T1, Recombinant human NPRB extracellular …; test: Fluorescence polarization competition: 150 nM SEQ ID NO: 31 against 5 nM CNP-F* on 50 nM human NPRB
Protocol: as §2, §3

For `CCCCCCCCCCCCCCCC(=O)NCCOCCOCC(=O)NCCOCCOCC(=O)NCCOCCOCC(=O)N[C@H](CCCCN)C(=O)N[C@H](CCCCN)C(=O)O` [SEQ ID NO: 3, CH3(CH2)14(C═O)-Aeea-Aeea-Aeea-kk], the MTD [1] was at least 5 µmol/kg, the “Ataxia** in n = 3” value (Sprague Dawley rats; ataxia is bolus dose limiting toxicity) was at least 5 µmol/kg and the “Swelling and/or Discoloration in n = 3” value (Sprague Dawley rats; dose at which sign was seen) was at least 3 µmol/kg. The “Anti-tumor effect vs anti-tigit Ab monotherapy” value (MC38 colon cancer cells) was “outperformed the anti-tumor effect of anti-tigit Ab as a monotherapy”.

B1: CNP-F* probe (C-type natriuretic peptide bound to 5(6)-Carboxyfluorescein) (peptide)
peptide: {5(6)‑carboxyfluorescein}-GLSKGCFGLKLDRIGSMSGLGC
modifications: disulfide 6-22 (inferred)
notes: Made by solid phase synthesis; used at 5 nM in the fluorescence polarization assay; also called CNP probe; CNP based probe
B1: binds [2]; no binding [3].

B2: SEQ ID NO: 31, cationic alkyl modified CNP derivative CH3(CH2)14(C=O)-Aeea-Aeea-Aeea-Dap-Dap-GLSKGCFGLKLDRIGSQSGLGC (disulfide bond) (peptide)
peptide: Palmitoyl-[AEEA][AEEA][AEEA][Dap][Dap]GLSKGCFGLKLDRIGSQSGLGC
modifications: disulfide 11-27
notes: The entry holds non-natural residues (Aeea, Dap) before the 22 residues of the CNP part
B2: binds [4].
